{"source": "patent US12281070B2", "about": "“Water soluble antiviral and antimicrobial compound and process for preparation thereof” (priority 2020, dated 2025)", "key": {"[1]": {"tested_on": "Bacillus subtilis (ATCC 6633)", "test": "Evaluation of antimicrobial activity, B. subtilis", "type": "cell-based", "details": "10 mg/10 ml"}, "Oral toxicity LD50, mice": {"test": "Oral toxicity LD50, mice", "type": "in vivo"}, "[2]": {"tested_on": "PI-3 virus (enveloped virus)", "type": "cell-based, Bovine parainfluenza virus"}, "[3]": {"tested_on": "SARS CoV-2 NIV2020-770 isolate", "type": "cell-based", "details": "72 hours"}, "[4]": {"tested_on": "Escherichia coli (ATCC 8739)", "test": "Evaluation of antimicrobial activity, E. coli", "type": "cell-based", "details": "10 mg/10 ml"}, "avian influenza": {"tested_on": "avian influenza", "design": "species or system poultry birds", "details": "in vivo"}, "[5]": {"tested_on": "Staphylococcus aureus (ATCC 6538)", "test": "Evaluation of antimicrobial activity, S. aureus", "type": "cell-based", "details": "10 mg/10 ml"}, "[6]": {"test": "Water solubility / dispersibility of the synthesized substance", "type": "physicochemical", "details": "semi solid creamy substance as synthesized"}, "Oral toxicity LD50, rat": {"test": "Oral toxicity LD50, rat", "type": "in vivo"}}}
{"smiles": "CCCCCCCCCCCCCCCCC(=O)OC(O)CO", "note": "(stereo not shown) [Formula II, 1,2-dihydroxyethyl heptadecanoate]", "values": [{"measurement": "% reduction after 30 seconds", "setting": "[1]; contact 30 seconds, inoculum 76000000 Cfu/ml", "result": 27.63, "unit": "%"}, {"measurement": "% reduction after 1 minute", "setting": "[1]; contact 1 minute", "result": 44.74, "unit": "%"}, {"measurement": "% reduction after 5 minutes", "setting": "[1]; contact 5 minutes", "result": 59.21, "unit": "%"}, {"measurement": "% reduction after 10 minutes", "setting": "[1]; contact 10 minutes", "result": 65.79, "unit": "%"}, {"measurement": "% reduction after 20 minutes", "setting": "[1]; contact 20 minutes", "result": 99.9789, "unit": "%"}, {"measurement": "LD 50", "setting": "Oral toxicity LD50, mice", "result": 4000, "unit": "mg per kg wt"}, {"measurement": "% Log reduction", "setting": "[2]", "result": 99.25, "unit": "%"}, {"measurement": "Log10 Reduction", "setting": "[2]", "result": 2.12, "unit": "Log10"}, {"measurement": "Virus Titer (Log10 TCID50/mL)", "setting": "[2]", "result": 2.50, "unit": "Log10 TCID50/mL"}, {"measurement": "inhibition of the RdRp-2 gene", "setting": "[3]", "result": "~40", "unit": "%"}, {"measurement": "% reduction after 30 seconds", "setting": "[4]; contact 30 seconds, inoculum 70000000 Cfu/ml", "result": 31.43, "unit": "%"}, {"measurement": "% reduction after 1 minute", "setting": "[4]; contact 1 minute", "result": 55.71, "unit": "%"}, {"measurement": "% reduction after 5 minutes", "setting": "[4]; contact 5 minutes", "result": 60, "unit": "%"}, {"measurement": "% reduction after 10 minutes", "setting": "[4]; contact 10 minutes", "result": 64.29, "unit": "%"}, {"measurement": "% reduction after 20 minutes", "setting": "[4]; contact 20 minutes", "result": 99.9851, "unit": "%"}, {"measurement": "reduction in mortality of avian influenza infected birds", "setting": "avian influenza", "result": 92, "unit": "%"}, {"measurement": "% reduction after 30 seconds", "setting": "[5]; contact 30 seconds, inoculum 74000000 Cfu/ml", "result": 31.08, "unit": "%"}, {"measurement": "% reduction after 1 minute", "setting": "[5]; contact 1 minute", "result": 43.24, "unit": "%"}, {"measurement": "% reduction after 5 minutes", "setting": "[5]; contact 5 minutes", "result": 54.05, "unit": "%"}, {"measurement": "% reduction after 10 minutes", "setting": "[5]; contact 10 minutes", "result": 62.16, "unit": "%"}, {"measurement": "% reduction after 20 minutes", "setting": "[5]; contact 20 minutes", "result": 99.9627, "unit": "%"}, {"measurement": "solubility in water", "setting": "[6]", "result": "water soluble and/or water dispersible"}, {"measurement": "cytotoxicity", "setting": "Vero CCL-81 cells", "result": "Dose dependent cytotoxicity"}, {"measurement": "CC50", "setting": "Vero CCL-81 cells; 72 hours", "result": 600, "unit": "fold dilution"}, {"measurement": "LD 50", "setting": "Oral toxicity LD50, rat", "result": 4000, "unit": "mg per kg wt"}]}
